Test results: PMC11645656, “MRGPRX4 mediates phospho-drug associated pruritus in a humanized mouse model” (Science translational medicine, 2024)
Values joined by “and” are separate entries in the source; they are usually repeats but may differ in a detail not shown here. Identical values can stand only once. Counter-ions that a name gives are not always drawn.

Assays:
[1] = system: NP2-WT DRG neurons; test: GCaMP6s calcium imaging of cultured NP2-WT DRG neurons; type: cell-based, mouse; settings: 10 μM phospho-drugs; 1 mM CQ
Source text: Fig. 2. Phosphate monoester prodrugs induce itch in NP2-MRGPRX4+ mice through activating NP2 primary sensory neurons. (A) Mating strategy to generate NP2-X4+ mice. (B) In situ hybridization showing MRGPRX4 transcripts (magenta) in NP2-X4+ DRG as indicated by arrowheads (left) but not in littermate control NP2-WT (right). NP2 subpopulation accounts for 5% of total DRG neurons. DAPI, blue. Scale bar, 50 μm. […]. Data are expressed as mean ± SEM. *p< 0.05, **p< 0.01 and ***p< 0.001 by two-tailed unpaired Student’s t-test. ns = no statistical significance observed. (D and E) Traces of average (top, depicted as mean ± 95% confidence interval) and individual (bottom, reflected by the heatmap) calcium activity, measured by fluorescence intensity normalized to the baseline intensity (FT/F0) over time of NP2-X4+ (D) and NP2-WT (E) DRG neurons labelled with GCaMP6s (n = 110–150 neurons pooled from 3–7 independent culture vessels from 2–4 mice in each condition). 10 μM phospho-drugs and 1 mM CQ were added as indicated by the arrowheads. […]
(§1) Calcium imaging data was collected with a Nikon Eclipse TE 200 microscope. Time series GCaMP6 fluorescence intensity was acquired through the FITC/GFP channel. […] Neurons with GCaMP6 signal rose above 50% of the baseline intensity after compound application were counted as positive responders and the percentage of responding neurons was calculated. […]

[2] = system: NP2-X4+ DRG neurons; test: GCaMP6s calcium imaging of cultured NP2-X4+ DRG neurons; type: cell-based, mouse; settings: 10 μM phospho-drugs; 1 mM CQ
Source text: Fig. 2. Phosphate monoester prodrugs induce itch in NP2-MRGPRX4+ mice through activating NP2 primary sensory neurons. (A) Mating strategy to generate NP2-X4+ mice. (B) In situ hybridization showing MRGPRX4 transcripts (magenta) in NP2-X4+ DRG as indicated by arrowheads (left) but not in littermate control NP2-WT (right). NP2 subpopulation accounts for 5% of total DRG neurons. DAPI, blue. Scale bar, 50 μm. […]. Data are expressed as mean ± SEM. *p< 0.05, **p< 0.01 and ***p< 0.001 by two-tailed unpaired Student’s t-test. ns = no statistical significance observed. (D and E) Traces of average (top, depicted as mean ± 95% confidence interval) and individual (bottom, reflected by the heatmap) calcium activity, measured by fluorescence intensity normalized to the baseline intensity (FT/F0) over time of NP2-X4+ (D) and NP2-WT (E) DRG neurons labelled with GCaMP6s (n = 110–150 neurons pooled from 3–7 independent culture vessels from 2–4 mice in each condition). 10 μM phospho-drugs and 1 mM CQ were added as indicated by the arrowheads. Neurons with FT/F0 > 1.5 after compound application were considered a positive responder. NP2-X4+: NP2-MRGPRX4+; DRG, dorsal root ganglia; CQ: chloroquine.
The procedures were performed following previously established protocols ([15]). Murine DRGs (from both male and female) were harvested from all spinal segments and digested in dispase (5 mg/ml) / type I collagenase (1 mg/ml) enzyme mix at 37 °C for an hour. Enzyme mix was replaced with complete DH10 media (90% DMEM/F12, 10% FBS, penicillin (100 units/ml), and streptomycin (100 μg/ml)) and gently triturated with 1 ml pipette tip until the media turned cloudy without visible tissue chunks. Dissociated tissues were filtered through a 70 μm filter and spun down 1250 rpm for 5 min at RT. Supernatant was removed and the cell pellet was resuspended in complete DH10 media. Cell suspension was then added on top of poly-D-lysine- and laminin-coated coverslips and sat for 1–2 h at 37°C. Complete DH10 media supplemented with NGF (50 ng/ml) was then added into the vessel. Neurons were allowed to recover overnight at 37°C for the next-day calcium imaging experiment.
as §1, with “channel. Before the imaging, cultured neurons were washed and equilibrated in CIB for 30 min at 37°C. In each trial, compounds (as indicated in the results) were added into the imaging chamber after a 30 s baseline GCaMP6 activity was collected.” for “channel.”

[3] = system: NP2-X4+ mice (MRGPRX4 in Mrgpra3+ NP2 sensory neurons); test: Itch behavioral study (scratching bouts after subcutaneous nape injection) in NP2-X4+ mice; type: in vivo, mouse; settings: for Scratching bouts of individual animals: NP2-X4+, 30 min after injection of 50 μl 10 mM into the nape, each cell one mouse
[4] = system: NP2-WT mice; test: Itch behavioral study (scratching bouts after subcutaneous nape injection) in littermate control NP2-WT mice; type: in vivo; settings: 30 min after injection of 50 μl 10 mM into the nape, each cell one mouse
Source text: Fig. 2. Phosphate monoester prodrugs induce itch in NP2-MRGPRX4+ mice through activating NP2 primary sensory neurons. (A) Mating strategy to generate NP2-X4+ mice. (B) In situ hybridization showing MRGPRX4 transcripts (magenta) in NP2-X4+ DRG as indicated by arrowheads (left) but not in littermate control NP2-WT (right). NP2 subpopulation accounts for 5% of total DRG neurons. DAPI, blue. Scale bar, 50 μm. […] . Data are expressed as mean ± SEM. *p< 0.05, **p< 0.01 and ***p< 0.001 by two-tailed unpaired Student’s t-test. ns = no statistical significance observed. (D and E) Traces of average (top, depicted as mean ± 95% confidence interval) and individual (bottom, reflected by the heatmap) calcium activity, measured by fluorescence intensity normalized to the baseline intensity (FT/F0) over time of NP2-X4+ (D) and NP2-WT (E) DRG neurons labelled with GCaMP6s (n = 110–150 neurons pooled from 3–7 independent culture vessels from 2–4 mice in each condition). 10 μM phospho-drugs and 1 mM CQ were added as indicated by the arrowheads. Neurons with FT/F0 > 1.5 after compound application were considered a positive responder. NP2-X4+: NP2-MRGPRX4+; DRG, dorsal root ganglia; CQ: chloroquine.
. All the animals used were heterozygous unless otherwise specified. NP2-X4+ and NP2-WT littermates were generated by crossing Mrgpra3-Cre to Rosa26-lsl-MRGPRX4 as detailed previously ([15]). NP2-X4+ mice were further crossed to homozygous Rosa26-lsl-GCaMP6s to obtain NP2-WT/GCaMP6s and NP2-X4+/GCaMP6s animals. A detailed mating strategy is illustrated in fig. S5. Pirt-Cre-GCaMP6s animals were acquired by crossing Pirt-Cre to homozygous Rosa26-lsl-GCaMP6s. Pirt-Cre animals were generated through homologous recombination as indicated previously ([37]). Rosa26-lsl-GCaMP6s mouse line was provided by Dr. Dwight Bergles’ lab at the Johns Hopkins School of Medicine.

[5] = vs dexamethasone; cited from earlier work
[6] = system: HTLA cells; test: PRESTO-Tango β-arrestin recruitment assay, parental HTLA cells without MRGPRX4 (control, fig. S1); type: cell-based
Source text: Supplement NIHMS2038790-supplement-table.xlsx, sheet "fig. S1" | column: Concentration (M)

[7] = system: WT mice; test: Itch behavioral study in WT mice across concentrations (fig. S4)
Protocol: Experimenters and subjects scoring the recorded videos were both blind to the mouse genotype and tested compounds. Behavioral tests comparing NP2-WT and NP2-X4+ scratching behavior were 6–12weeks old littermates including both genders. In brief, on the day preceding the experiment, animals were acclimated to the test chamber for at least 30 min and the experimenters performed mock injections 1–2 times in between. On the day of experiments, animals were habituated in test chambers for 10 min before receiving subcutaneous injection of 50ul compounds. Videos were recorded for 30 min after the injection. A bout of scratching was defined as a sustained scratching movement initiated by hindpaws toward the injection site (until the pause of the movement / withdrawal of the hindpaw). Scratching bouts were quantified within the 30 min record sessions.

[8] = target: T1, MRGPRX4 (S83) (Homo sapiens, UniProt Q96LA9, L83S); test: EC50 determination, intracellular calcium mobilization in MRGPRX4 stably expressed HEK293 cells (FLIPR Calcium 5, Flexstation-3); type: cell-based; settings: propofol series, individual replicate values
T1 construct: expressed in transfected cells
T1 sequence (Q96LA9 whole entry L83S): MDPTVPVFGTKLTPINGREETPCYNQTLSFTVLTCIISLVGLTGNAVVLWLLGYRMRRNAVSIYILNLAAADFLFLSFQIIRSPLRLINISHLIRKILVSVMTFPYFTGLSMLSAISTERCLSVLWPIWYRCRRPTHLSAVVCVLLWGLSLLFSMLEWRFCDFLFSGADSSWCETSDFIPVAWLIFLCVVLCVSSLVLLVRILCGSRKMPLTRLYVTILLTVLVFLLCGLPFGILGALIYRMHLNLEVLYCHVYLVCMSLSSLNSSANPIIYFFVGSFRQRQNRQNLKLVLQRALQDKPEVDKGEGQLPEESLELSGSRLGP
Procedure, shortened: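 EC50 came from a four-parameter logistic fit to averaged triplicate responses, each response being maximum post-stimulation signal less baseline. Intracellular calcium was monitored with Calcium 5 dye in HBSS with 20 mM HEPES, pH 7.4, after 1 h dye loading at 37 °C, using stably transfected HEK293 cells and parental controls.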

## CCN(CC)CCCC(C)Nc1ccnc2cc(Cl)ccc12 (stereo not shown) [Chloroquine]
[1]
  Calcium response of NP2-WT neurons: responded
[2]
  Calcium response of NP2-X4+ neurons: responded

## C[C@@H]1C[C@H]2[C@@H]3CCC4=CC(=O)C=C[C@]4(C)[C@@]3(F)[C@@H](O)C[C@]2(C)[C@@]1(O)C(=O)COP(=O)(O)O [Dexamethasone phosphate]
[3]
  Scratching bouts of individual animals: 19 and 29 and 40 and 22 and 17 and 35 and 2 and 71 and 63 and 41
[4]
  Scratching bouts of individual animals: 4 and 14 and 5 (2×) and 8 and 3 (2×) and 18 and 12 and 42
[2]
  Calcium response of NP2-X4+ neurons: strong calcium transients
[5]
  Enhancement of aqueous solubility: more than 500 fold
[6]; concentration 4.88e-7 M
  PRESTO-Tango response (fig. S1), single replicate: 0.002254 and 0.004793 and 0.008408 and 0.006888 and 0.003935 and 0.001659
[6]; concentration 9.77e-7 M
  PRESTO-Tango response (fig. S1), single replicate: 0.004343 and 0.01198 and 0.02598 and 0.007642 and 0.02244 and 0.00537
[6]; concentration 1.95e-6 M
  PRESTO-Tango response (fig. S1), single replicate: 0.003939 and 0.005577 and 0.007884 and 0.006351 and 0.008709 and 0.001173
[6]; concentration 3.91e-6 M
  PRESTO-Tango response (fig. S1), single replicate: 0.006644 and 0.008139 and 0.007744 and 0.01012 and 0.008517 and 0.007795
[6]; concentration 7.81e-6 M
  PRESTO-Tango response (fig. S1), single replicate: 0.008709 and 0.01255 and 0.009916 and 0.01429 and 0.003964 and 0.009591
[6]; concentration 1.56e-5 M
  PRESTO-Tango response (fig. S1), single replicate: 0.01013 and 0.0155 and 0.008817 and 0.01021 and 0.0162 and 0.001357
[6]; concentration 3.13e-5 M
  PRESTO-Tango response (fig. S1), single replicate: 0.01293 and 0.02454 and 0.01076 and 0.01089 and 0.02171 and 0.002693
[6]; concentration 6.25e-5 M
  PRESTO-Tango response (fig. S1), single replicate: 0.01139 and 0.03821 and 0.01576 and 0.0127 and 0.01288 and 0.03538
[6]; concentration 0.00025 M
  PRESTO-Tango response (fig. S1), single replicate: 0.01585 and 0.06272 and 0.01054 and 0.02134 and 0.01844 and 0.04104
[6]; concentration 0.0005 M
  PRESTO-Tango response (fig. S1), single replicate: 0.01737 and 0.05973 and 0.009456 and 0.02137 and 0.0304 and 0.02084
[7]; 1 mM subcutaneous nape injection
  Scratching bouts (each well represents individual mouse): 5 and 12 and 10 and 47
[7]; 10 mM subcutaneous nape injection
  Scratching bouts (each well represents individual mouse): 2 and 30 and 18 and 13

## CC(C)c1cccc(C(C)C)c1OS(=O)(=O)O [Propofol sulfate]
[3]; 50 μl 10 mM nape injection, 30 min
  Scratching / itch behavior, NP2-X4+ mice vs WT littermates: no differences in itch behavior were detected
[3]
  Scratching bouts of individual animals: 4 and 14 (2×) and 2 and 12 (2×) and 11 and 42 and 6
[4]
  Scratching bouts of individual animals: 15 and 0 and 6 and 5 and 3 and 11
[8]; 9.76563e-7 M
  Fig. 1D dose-response, calcium response at Concentration (M): -9.765 and -0.941 and -3.534 and -7.698 and -0.440 and -6.103 and -0.412 and -8.690 and -5.139
[8]; 1.95313e-6 M
  Fig. 1D dose-response, calcium response at Concentration (M): 6.750 and 16.267 and 9.058 and 9.006 and 15.719 and 7.351 and 7.826 and 16.017 and 8.232
[8]; 3.90625e-6 M
  Fig. 1D dose-response, calcium response at Concentration (M): 4.213 and 7.941 and 5.294 and 9.099 and 3.195 and 5.153 and 8.684 and 2.706 and 6.058
[8]; 7.8125e-6 M
  Fig. 1D dose-response, calcium response at Concentration (M): -1.463 and -6.718 and -3.371 and -0.821 and -4.964 and -5.766 and -0.353 and -2.243 and -8.955
[8]; 1.5625e-5 M
  Fig. 1D dose-response, calcium response at Concentration (M): -10.261 and -6.059 and -2.116 and -7.312 and -10.479 and -0.646 and -4.250 and -7.396 and -6.790
[8]; 3.125e-5 M
  Fig. 1D dose-response, calcium response at Concentration (M): -14.578 and -1.085 and -26.180 and -14.763 and -11.464 and -15.617 and -4.490 and -19.590 and -17.764
[8]; 6.25e-5 M
  Fig. 1D dose-response, calcium response at Concentration (M): -6.291 and -44.109 and -11.407 and -17.994 and -28.042 and -15.772 and -23.530 and -32.512 and -5.766
[8]; 0.00025 M
  Fig. 1D dose-response, calcium response at Concentration (M): -9.210 and -19.710 and -18.950 and -19.770 and -23.073 and -5.027 and -19.240 and -15.426 and -13.204
[8]; 0.0005 M
  Fig. 1D dose-response, calcium response at Concentration (M): -0.269 and -0.640 and -0.169 and -0.708 and -0.172 and -0.198 and -0.248 and -0.541 and -0.289
[8]; 0.001 M
  Fig. 1D dose-response, calcium response at Concentration (M): 6.469 and 6.229 and 2.832 and 5.169 and 2.033 and 8.329 and 8.781 and 6.580 and 0.170
